Patent US10660835B2, “Method for hair frizz reduction” (The Procter & Gamble Company, priority 2015, dated 2020)

Assay: DVS water uptake after soaking treatment
Settings: pH 4.2, 40 deg C, at 90% RH
Method: The Moisture Control Material is added into a 50:50 ethanol:water solvent at a concentration of 2% w/w and mixed until completely dissolved. The solution pH is adjusted with sodium hydroxide (50% w/w) to a final pH of 4.2. The soaking solution is kept at 40 deg C. for 2 hrs until a uniform composition is obtained.
One hair switch of natural virgin brown hair is placed in 200 ml of this solution for 2 hours in an oven set at 40° C. After the 2-hour period, the hair is removed, air dried and then tested for moisture uptake using DVS. For the control experiment, a natural brown virgin hair switch of the same weight is placed in a 50:50 ethanol:water solvent and treated under identical conditions.
The % water reduction is calculated as follows: […]
Hair is soaked in active solution of pH 4.2 for different intervals of time from 10 min to 2 hrs at 40 deg C. Hair Switches are air dried and prepared for % water reduction measurement using DVS vs. control (no active).

## O=C(O)c1cc(Cl)ccc1O [5-Chlorosalicylic acid]
10 min soaking
  % water reduction vs control: 9.6%
20 min soaking
  % water reduction vs control: 14.8%
30 min soaking
  % water reduction vs control: 19%
1 hr soaking
  % water reduction vs control: 26%
2 hr soaking
  % water reduction vs control: 30%
